Assay results taken from PubChem BioAssay AID2060910 (Molecular Pharmacology Branch, DTP, NCI, 2025).

Test system: 242566-281-R-J2-PDC complex spheroid viability
Assay: Anticancer human tumor 242566-281-R-J2-PDC patient-derived pancreatic carcinoma cell line growth inhibition [RAS]
Settings: for IC50: curve of first compound; for viability, T/C: stronger effect = lower value
How it was run: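 Multi-cell-type spheroids: tumor cells plus HUVEC endothelial cells and mesenchymal stem cells. RAS-pathway inhibitors were combined with targeted agents, each dosed in half-log steps down from clinical Cmax, or from 10 microM when Cmax was unknown.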

[1] = second compound 0.000949 µM, first compound 0.0316 µM
[2] = second compound 0.000949 µM, first compound 0.1 µM
[3] = second compound 0.000949 µM, first compound 0.316 µM
[4] = second compound 0.000949 µM, first compound 1 µM
[5] = second compound 0.000949 µM, first compound 3.16 µM
[6] = second compound 0.000949 µM, first compound 10 µM
[7] = second compound 0.003 µM, first compound 0.0316 µM
[8] = second compound 0.003 µM, first compound 0.1 µM
[9] = second compound 0.003 µM, first compound 0.316 µM
[10] = second compound 0.003 µM, first compound 1 µM
[11] = second compound 0.003 µM, first compound 3.16 µM
[12] = second compound 0.003 µM, first compound 10 µM
[13] = second compound 0.00949 µM, first compound 0.0316 µM
[14] = second compound 0.00949 µM, first compound 0.1 µM
[15] = second compound 0.00949 µM, first compound 0.316 µM
[16] = second compound 0.00949 µM, first compound 1 µM
[17] = second compound 0.00949 µM, first compound 3.16 µM
[18] = second compound 0.00949 µM, first compound 10 µM
[19] = second compound 0.03 µM, first compound 0.0316 µM
[20] = second compound 0.03 µM, first compound 0.1 µM
[21] = second compound 0.03 µM, first compound 0.316 µM
[22] = second compound 0.03 µM, first compound 1 µM
[23] = second compound 0.03 µM, first compound 3.16 µM
[24] = second compound 0.03 µM, first compound 10 µM
[25] = second compound 0.0949 µM, first compound 0.0316 µM
[26] = second compound 0.0949 µM, first compound 0.1 µM
[27] = second compound 0.0949 µM, first compound 0.316 µM
[28] = second compound 0.0949 µM, first compound 1 µM
[29] = second compound 0.0949 µM, first compound 3.16 µM
[30] = second compound 0.0949 µM, first compound 10 µM
[31] = second compound 0.3 µM, first compound 0.0316 µM
[32] = second compound 0.3 µM, first compound 0.1 µM
[33] = second compound 0.3 µM, first compound 0.316 µM
[34] = second compound 0.3 µM, first compound 1 µM
[35] = second compound 0.3 µM, first compound 3.16 µM
[36] = second compound 0.3 µM, first compound 10 µM
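Further: spheroids exposed to compound for 7 days before readout.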
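Wherever viability, T/C is given: 100% = DMSO vehicle control wells.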

CC1(O)CCCC1n1c(=O)c(C(F)F)cc2cnc(NC3CCN(S(C)(=O)=O)CC3)nc21 (stereo unspecified) + CCn1c(-c2cccnc2C(C)OC)c2c3cc(ccc31)N1CCOC(CC(NC(=O)C(C(C)C)N(C)C(=O)C3(F)CCN(C(=O)C#CC(C)(C)N(C)C)CC3)C(=O)N3CCCC(N3)C(=O)OCC(C)(C)C2)C1
IC50 (second compound 0.000949 µM): 6360 nM | IC50 (second compound 0.003 µM): 5990 nM | IC50 (second compound 0.00949 µM): 7700 nM | IC50 (second compound 0.03 µM): > 10000 nM | IC50 (second compound 0.0949 µM): > 10000 nM | IC50 (second compound 0.3 µM): 6330 nM | viability, T/C [1]: 86.4% | viability, T/C [2]: 70.1% | viability, T/C [3]: 63.5% | viability, T/C [4]: 94.3% | viability, T/C [5]: 114% | viability, T/C [6]: 26.9% | viability, T/C [7]: 77.3% | viability, T/C [8]: 63.5% | viability, T/C [9]: 71.9% | viability, T/C [10]: 91.5% | viability, T/C [11]: 110% | viability, T/C [12]: 23.6% | viability, T/C [13]: 84.6% | viability, T/C [14]: 62.4% | viability, T/C [15]: 70.3% | viability, T/C [16]: 86.8% | viability, T/C [17]: 95.9% | viability, T/C [18]: 41.2% | viability, T/C [19]: 78.6% | viability, T/C [20]: 82% | viability, T/C [21]: 83.9% | viability, T/C [22]: 85.8% | viability, T/C [23]: 84.9% | viability, T/C [24]: 53.1% | viability, T/C [25]: 69.1% | viability, T/C [26]: 62.8% | viability, T/C [27]: 69.6% | viability, T/C [28]: 90% | viability, T/C [29]: 90% | viability, T/C [30]: 54.4% | viability, T/C [31]: 64.8% | viability, T/C [32]: 67.4% | viability, T/C [33]: 71.6% | viability, T/C [34]: 78.9% | viability, T/C [35]: 101% | viability, T/C [36]: 32.6%

Cc1nc(N2CCC3(CC2)COC(C)C3N)c(CO)nc1Sc1ccnc(N)c1Cl (stereo unspecified) + CCn1c(-c2cc(N3CCN(C)CC3)cnc2C(C)OC)c2c3cc(ccc31)-c1csc(n1)CC(NC(=O)C1CC1C)C(=O)N1CCCC(N1)C(=O)OCC(C)(C)C2
IC50 (second compound 0.000949 µM): 353 nM | IC50 (second compound 0.003 µM): 71.8 nM | IC50 (second compound 0.00949 µM): < 31.6 nM | IC50 (second compound 0.03 µM): < 31.6 nM | IC50 (second compound 0.0949 µM): < 31.6 nM | IC50 (second compound 0.3 µM): < 31.6 nM | viability, T/C [1]: 92.2% | viability, T/C [2]: 69.8% | viability, T/C [3]: 43.5% | viability, T/C [4]: 45% | viability, T/C [5]: 32.9% | viability, T/C [6]: 19.8% | viability, T/C [7]: 61% | viability, T/C [8]: 46.9% | viability, T/C [9]: 31% | viability, T/C [10]: 28.2% | viability, T/C [11]: 26.1% | viability, T/C [12]: 16.1% | viability, T/C [13]: 41.3% | viability, T/C [14]: 26.4% | viability, T/C [15]: 27.9% | viability, T/C [16]: 21.9% | viability, T/C [17]: 19.4% | viability, T/C [18]: 17.1% | viability, T/C [19]: 25.8% | viability, T/C [20]: 24.3% | viability, T/C [21]: 19.3% | viability, T/C [22]: 17.9% | viability, T/C [23]: 15.1% | viability, T/C [24]: 14.9% | viability, T/C [25]: 21.5% | viability, T/C [26]: 19.1% | viability, T/C [27]: 18.5% | viability, T/C [28]: 16.9% | viability, T/C [29]: 14.3% | viability, T/C [30]: 15.4% | viability, T/C [31]: 21.5% | viability, T/C [32]: 18.1% | viability, T/C [33]: 16.6% | viability, T/C [34]: 14.8% | viability, T/C [35]: 16.4% | viability, T/C [36]: 12.9%

O=C(c1ccc(F)c(F)c1Nc1ccc(I)cc1F)N1CC(O)([C@@H]2CCCCN2)C1 + C=CC(=O)N1CCN(c2nc(OCC3CCCN3C)nc3c(F)c(-c4nc(N)cc(C)c4C(F)(F)F)c(Cl)cc23)C(C)C1
IC50 (second compound 0.00316 µM): 260 nM | IC50 (second compound 0.01 µM): 677 nM | IC50 (second compound 0.0316 µM): 436 nM | IC50 (second compound 0.1 µM): 593 nM | IC50 (second compound 0.316 µM): > 1000 nM | IC50 (second compound 1 µM): 281 nM | viability, T/C (second compound 0.00316 µM, first compound 0.00316 µM): 91.4% | viability, T/C (second compound 0.00316 µM, first compound 0.01 µM): 116% | viability, T/C (second compound 0.00316 µM, first compound 0.0316 µM): 92.6% | viability, T/C (second compound 0.00316 µM, first compound 0.1 µM): 64.8% | viability, T/C (second compound 0.00316 µM, first compound 0.316 µM): 48% | viability, T/C (second compound 0.00316 µM, first compound 1 µM): 43.9% | viability, T/C (second compound 0.01 µM, first compound 0.00316 µM): 92.5% | viability, T/C (second compound 0.01 µM, first compound 0.01 µM): 116% | viability, T/C (second compound 0.01 µM, first compound 0.0316 µM): 79.7% | viability, T/C (second compound 0.01 µM, first compound 0.1 µM): 73.5% | viability, T/C (second compound 0.01 µM, first compound 0.316 µM): 53.5% | viability, T/C (second compound 0.01 µM, first compound 1 µM): 47.4% | viability, T/C (second compound 0.0316 µM, first compound 0.00316 µM): 104% | viability, T/C (second compound 0.0316 µM, first compound 0.01 µM): 117% | viability, T/C (second compound 0.0316 µM, first compound 0.0316 µM): 80.2% | viability, T/C (second compound 0.0316 µM, first compound 0.1 µM): 74.6% | viability, T/C (second compound 0.0316 µM, first compound 0.316 µM): 52.9% | viability, T/C (second compound 0.0316 µM, first compound 1 µM): 42.1% | viability, T/C (second compound 0.1 µM, first compound 0.00316 µM): 103% | viability, T/C (second compound 0.1 µM, first compound 0.01 µM): 104% | viability, T/C (second compound 0.1 µM, first compound 0.0316 µM): 94.4% | viability, T/C (second compound 0.1 µM, first compound 0.1 µM): 70.6% | viability, T/C (second compound 0.1 µM, first compound 0.316 µM): 60.6% | viability, T/C (second compound 0.1 µM, first compound 1 µM): 43% | viability, T/C (second compound 0.316 µM, first compound 0.00316 µM): 103% | viability, T/C (second compound 0.316 µM, first compound 0.01 µM): 113% | viability, T/C (second compound 0.316 µM, first compound 0.0316 µM): 68.3% | viability, T/C (second compound 0.316 µM, first compound 0.1 µM): 70.7% | viability, T/C (second compound 0.316 µM, first compound 0.316 µM): 61% | viability, T/C (second compound 0.316 µM, first compound 1 µM): 48.7% | viability, T/C (second compound 1 µM, first compound 0.00316 µM): 101% | viability, T/C (second compound 1 µM, first compound 0.01 µM): 112% | viability, T/C (second compound 1 µM, first compound 0.0316 µM): 97.9% | viability, T/C (second compound 1 µM, first compound 0.1 µM): 73.4% | viability, T/C (second compound 1 µM, first compound 0.316 µM): 45.8% | viability, T/C (second compound 1 µM, first compound 1 µM): 44.6%
